Source: patent US20240150377A1, “MODULATORS OF CYSTIC FIBROSIS TRANSMEMBRANE CONDUCTANCE REGULATOR” (VERTEX PHARMACEUTICALS INCORPORATED, priority 2020, published 2024)

Tests used:
[1] = target: T1, CFTR (Homo sapiens, UniProt P13569, DEL508-508); test: HBE2 assay: Ussing chamber assay of CFTR-mediated short-circuit currents; format: cell-based; settings: F508del/MF-HBE cells, 18-24 hours, 20% human serum; for Emax: read-out: HBE2 Max activity (%)
T1 construct: endogenous in cells; host or cells: primary human bronchial epithelial cells from CF subjects (F508del/MF-HBE), differentiated at air-liquid interface
Protocol: Ussing Chamber Assay of CFTR-Mediated Short-Circuit Currents
After four days the apical media was removed, and the cells were grown at an air liquid interface for >14 days prior to use.
To isolate the CFTR-mediated short-circuit (ISC) current, F508del/MF-HBE grown on Costar® Snapwell™ cell culture inserts were mounted in an Ussing chamber and the transepithelial ISC was measured under voltage-clamp recording conditions (Vhold=0 mV) at 37° C. […] The CFTR-mediated ISC (μA/cm^2) for each condition was determined from the peak forskolin response to the steady-state current following inhibition.
Identification of Corrector Compounds
The activity of the CFTR corrector compounds on the CFTR-mediated ISC was determined in Ussing chamber studies as described above.

[2] = target: T1, CFTR; test: HBE assay: Ussing chamber assay of CFTR-mediated short-circuit currents; format: cell-based; settings: Table 10
Summary of the method: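 CFTR-mediated Isc (μA/cm²) equals the peak response to apical 20 μM forskolin minus the residual after a 20 μM each BPO/GlyH-101/CFTR inhibitor 172 cocktail, recorded in Ussing chambers at Vhold 0 mV, 37 °C, pH 7.4, with 30 μM apical amiloride. Cells were F508del/MF HBE cultures preincubated 18-24 h with corrector (concentration range or 10 μM) plus 1 μM ivacaftor in 20% human serum.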

[3] = 3 μM corrector, with 44 nM potentiator
[4] = corrector at a range of concentrations with 44 nM potentiator

T1 sequence (P13569 with tags, fused parts or gaps DEL508-508): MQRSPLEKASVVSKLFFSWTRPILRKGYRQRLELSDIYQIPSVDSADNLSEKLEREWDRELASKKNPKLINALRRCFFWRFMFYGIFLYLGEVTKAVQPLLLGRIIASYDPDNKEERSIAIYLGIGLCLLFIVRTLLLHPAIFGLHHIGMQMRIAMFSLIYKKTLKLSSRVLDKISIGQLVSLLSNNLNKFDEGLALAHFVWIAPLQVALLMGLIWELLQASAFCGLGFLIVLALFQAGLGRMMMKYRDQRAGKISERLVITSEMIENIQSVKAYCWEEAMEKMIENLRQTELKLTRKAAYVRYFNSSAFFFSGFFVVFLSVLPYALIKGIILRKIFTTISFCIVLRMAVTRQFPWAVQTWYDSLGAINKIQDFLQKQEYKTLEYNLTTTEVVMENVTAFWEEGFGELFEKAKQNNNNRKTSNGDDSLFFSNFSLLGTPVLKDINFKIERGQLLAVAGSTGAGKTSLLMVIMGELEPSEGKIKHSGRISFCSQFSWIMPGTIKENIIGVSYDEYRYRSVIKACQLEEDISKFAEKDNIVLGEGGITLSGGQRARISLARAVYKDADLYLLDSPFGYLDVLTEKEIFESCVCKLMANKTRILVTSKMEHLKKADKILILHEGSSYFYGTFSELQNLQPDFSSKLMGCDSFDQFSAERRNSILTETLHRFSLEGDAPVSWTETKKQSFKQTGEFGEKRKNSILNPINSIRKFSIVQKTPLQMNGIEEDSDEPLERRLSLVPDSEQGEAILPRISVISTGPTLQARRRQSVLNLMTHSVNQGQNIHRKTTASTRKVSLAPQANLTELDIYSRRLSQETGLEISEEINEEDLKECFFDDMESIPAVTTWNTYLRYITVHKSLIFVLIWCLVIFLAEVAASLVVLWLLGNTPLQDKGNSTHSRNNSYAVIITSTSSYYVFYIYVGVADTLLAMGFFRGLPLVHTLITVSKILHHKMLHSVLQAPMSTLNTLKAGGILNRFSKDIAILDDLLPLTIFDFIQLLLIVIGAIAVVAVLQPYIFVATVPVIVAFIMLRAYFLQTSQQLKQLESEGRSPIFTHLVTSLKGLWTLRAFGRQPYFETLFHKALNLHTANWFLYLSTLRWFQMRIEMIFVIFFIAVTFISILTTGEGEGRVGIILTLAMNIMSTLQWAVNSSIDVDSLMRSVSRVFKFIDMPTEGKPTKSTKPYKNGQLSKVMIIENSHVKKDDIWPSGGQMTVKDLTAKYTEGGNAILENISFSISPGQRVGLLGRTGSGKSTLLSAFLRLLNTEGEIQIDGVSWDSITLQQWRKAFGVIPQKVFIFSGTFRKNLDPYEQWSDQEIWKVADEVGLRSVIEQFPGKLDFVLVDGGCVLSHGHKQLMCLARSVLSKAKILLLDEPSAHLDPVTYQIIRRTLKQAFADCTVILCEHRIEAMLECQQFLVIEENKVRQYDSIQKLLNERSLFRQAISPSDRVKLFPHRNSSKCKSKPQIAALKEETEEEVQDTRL

Row | Structure (SMILES) | HBE2 Activity at 3 μM (%) [1, 3] | also measured
1 | COC[C@H]1CCCCN1c1cncc(CN2C(=O)c3cccc(c3)S(=O)(=O)Nc3nc(cc(-c4c(C)cccc4C)n3)OC[C@H]2CC(C)(C)C)n1 [Compound 1539] | – | EC50 ([1]; with 44 nM potentiator): < 1 µM; Emax ([1]; with 44 nM potentiator): > 60%
2 | Cc1cccc(C)c1-c1cc2nc(n1)NS(=O)(=O)c1cccc(c1)C(=O)N(Cc1cncc(N(C)CC(C)C)n1)[C@H](CCC(C)(C)C)CO2 [Compound 1791] | +++ (+++ is >60+) | –
3 | Cc1cccc(C)c1-c1cc2nc(n1)NS(=O)(=O)c1cccc(c1)C(=O)N(Cc1cncc(N3CC(=O)N(C)C[C@H]3C)n1)[C@H](CC(C)(C)C)CO2 [Compound 1644] | – | HBE2 Activity at 3 μM (%) ([1]; 3 μM, with 44 nM potentiator): +++ (+++ is >60+)
4 | Cc1cccc(C)c1-c1cc2nc(n1)NS(=O)(=O)c1cccc(c1)C(=O)N(Cc1cncc(N(C)C3CCC3)n1)[C@H](CCC1CC1)CO2 [Compound 1684] | – | HBE2 Activity at 3 μM (%) ([1]; 3 μM, with 44 nM potentiator): +++ (+++ is >60+); EC50 ([1]; with 44 nM potentiator): < 1 µM; Emax ([1]; with 44 nM potentiator): > 60%
5 | Cc1cccc(C)c1-c1cc2nc(n1)NS(=O)(=O)c1cccc(c1)C(=O)N(Cc1cncc(N(C)CCC(C)C)n1)[C@H](CC(C)(C)C)CO2 [Compound 1696] | – | HBE2 Activity at 3 μM (%) ([1]; 3 μM, with 44 nM potentiator): +++ (+++ is >60+)
6 | Cc1cccc(C)c1-c1cc2nc(n1)NS(=O)(=O)c1cccc(c1)C(=O)N(Cc1cnc3cc(C(C)C)oc3n1)[C@H](CC(C)(C)C)CO2 [Compound 1882] | +++ (+++ is >60+) | –
7 | COCC1(N(C)c2cncc(CN3C(=O)c4cccc(c4)S(=O)(=O)Nc4nc(cc(-c5c(C)cccc5C)n4)OC[C@H]3CC(C)(C)C)n2)CCC1 [Compound 1635] | – | HBE2 Activity at 3 μM (%) ([1]; 3 μM, with 44 nM potentiator): +++ (+++ is >60+)
8 | Cc1cccc(C)c1-c1cc2nc(n1)NS(=O)(=O)c1cccc(c1)C(=O)N(Cc1cncc(N3CCO[C@@H](C)[C@H]3C)n1)[C@H](CC(C)(C)C)CO2 (stereo in doubt) [Compound 1760] | +++ (+++ is >60+) | –
9 | CCC(CC)[C@@H]1COc2cc(-c3c(C)cccc3C)nc(n2)NS(=O)(=O)c2cccc(c2)C(=O)N1Cc1cncc(N(C)C2CCC2)n1 [Compound 1779] | +++ (+++ is >60+) | –
10 | Cc1cccc(C)c1-c1cc2nc(n1)NS(=O)(=O)c1cccc(c1)C(=O)N(Cc1cncc(N(C)C3CCC3)n1)[C@H](C1CC3(CCC3)C1)CO2 (single isomer, unassigned) [Compound 1321, 12-[[6-[cyclobutyl(methyl)amino]pyrazin-2-yl]methyl]-6-(2,6-dimethylphenyl)-2,2-dioxo-11-spiro[3.3]heptan-2-yl-9-oxa-2λ^6-thia-3,5,12,19-tetrazatricyclo[12.3.1.14,8]nonadeca-1(18),4(19),5,7,14,16-hexaen-13-one] | – | HBE2 Activity at 3 μM (%) ([1]; 3 μM, with 44 nM potentiator): ++ (++ is 30-60%)
11 | CCN(c1nc(CN2C(=O)c3cccc(c3)S(=O)(=O)Nc3nc(cc(-c4c(C)cccc4C)n3)OC[C@H]2CC(C)(C)C)co1)C1CCC1 [Compound 1645] | – | HBE2 Activity at 3 μM (%) ([1]; 3 μM, with 44 nM potentiator): +++ (+++ is >60+)
12 | Cc1cccc(C)c1-c1cc2nc(n1)NS(=O)(=O)c1cccc(c1)C(=O)N(Cc1cncc(N(C)[C@H]3C[C@H](C)C3)n1)[C@H](CCC(C)(C)C)CO2 [Compound 1885] | +++ (+++ is >60+) | –
13 | Cc1cccc(C)c1-c1cc2nc(n1)NS(=O)(=O)c1cccc(c1)C(=O)N(Cc1cnc3cc(C(C)C)n(C)c3n1)[C@H](CC(C)C)CO2 [Compound 1834] | +++ (+++ is >60+) | –
14 | Cc1cccc(C)c1-c1cc2nc(n1)NS(=O)(=O)c1cccc(c1)C(=O)N(Cc1cncc(N(C)CC(C)(C)F)n1)[C@H](CC(C)(C)C)CO2 [Compound 1759] | +++ (+++ is >60+) | –
15 | Cc1cccc(C)c1-c1cc2nc(n1)NS(=N)(=O)c1cccc(c1)C(=O)N(Cc1ncc(N3CC(C)(C)C3)cn1)[C@H](CC(C)(C)C)CO2 (single isomer, unassigned) [Compound 1312] | – | HBE2 Activity at 3 μM (%) ([1]; 3 μM, with 44 nM potentiator): ++ (++ is 30-60%)
16 | Cc1cccc(C)c1-c1cc2nc(n1)NS(=O)(=O)c1cccc(c1)C(=O)N(Cc1cncc(N3CC4CC3C4)n1)[C@H](CC(C)(C)C)CO2 [Compound 1687] | – | HBE2 Activity at 3 μM (%) ([1]; 3 μM, with 44 nM potentiator): +++ (+++ is >60+)
17 | Cc1cccc(C)c1-c1cc2nc(n1)NS(=O)(=O)c1cccc(c1)C(=O)N(Cc1cncc(N(C)C3CCC3)n1)[C@H](CC1CC3(CCC3)C1)CO2 [Compound 1682] | – | HBE2 Activity at 3 μM (%) ([1]; 3 μM, with 44 nM potentiator): +++ (+++ is >60+)
18 | Cc1cccc(C)c1-c1cc2nc(n1)NS(=O)(=O)c1cccc(c1)C(=O)N(Cc1cncc(N(C)CC(C)(C)C)n1)[C@H](CCC1CC1)CO2 [Compound 1719] | +++ (+++ is >60+) | EC50 [1, 4]: < 1 µM; Emax ([1]; with 44 nM potentiator): > 60%
19 | Cc1cccc(C)c1-c1cc2nc(n1)NS(=O)(=O)c1cccc(c1)C(=O)N(Cc1nccc(N(C)C(C)C)n1)[C@H](CCC(C)(C)C)CO2 [Compound 1715] | +++ (+++ is >60+) | –
20 | Cc1cccc(C)c1-c1cc2nc(n1)NS(=O)(=O)c1cc(n(C)n1)C(=O)N(Cc1cncc(N3CCC[C@H]3C)n1)[C@H](CC(C)(C)C)CO2 [Compound 1945] | +++ (+++ is >60+) | –
21 | Cc1cccc(C)c1-c1cc2nc(n1)NS(=O)(=O)c1cccc(c1)C(=O)N(Cc1ncc(OC(C)C)cn1)[C@H](COC(C)C)CO2 [Compound 1957] | +++ (+++ is >60+) | –
22 | Cc1cccc(C)c1-c1cc2nc(n1)NS(=O)(=O)c1cccc(c1)C(=O)N(Cc1ccc(OCC(=O)N(C)C)cc1)[C@H](CC(C)(C)C)CO2 [Compound 779] | – | EC50 ([2]; read-out: HBE EC50): < 1 µM; Emax ([2]; read-out: HBE Max activity (%)): > 60%

Further lines, with some results ahead:

Row | HBE2 Activity at 3 μM (%) [1, 3] | Structure (SMILES) | also measured
23 | +++ (+++ is >60+) | Cc1cccc(C)c1-c1cc2nc(n1)NS(=O)(=O)c1cccc(c1)C(=O)N(Cc1cncc(N(C)C3CCC3)n1)[C@H](CC1CCCC1)CO2 [Compound 1844] | –
24 | +++ (+++ is >60+) | COCC1CCN1c1cncc(CN2C(=O)c3cccc(c3)S(=O)(=O)Nc3nc(cc(-c4c(C)cccc4C)n3)OC[C@H]2COC2CC2)n1 (stereo in doubt) [Compound 1894] | –
25 | +++ (+++ is >60+) | Cc1cccc(C)c1-c1cc2nc(n1)NS(=O)(=O)c1cccc(c1)C(=O)N(Cc1cncc(N3CCC[C@H]3C)n1)[C@H](CC1CC1)CO2 [Compound 1787] | –
26 | +++ (+++ is >60+) | Cc1cccc(C)c1-c1cc2nc(n1)NS(=O)(=O)c1cccc(c1)C(=O)N(Cc1cncc(N3CC[C@H]3C)n1)[C@H](CCC(C)(C)C)CO2 [Compound 1726] | EC50 [1, 4]: < 1 µM; Emax ([1]; with 44 nM potentiator): > 60%
27 | +++ (+++ is >60+) | Cc1cccc(C)c1-c1cc2nc(n1)NS(=O)(=O)c1cccc(c1)C(=O)N(Cc1cncc(N3CCCC4CCC43)n1)[C@H](CC1(C)CCC1)CO2 (stereo partly drawn) [Compound 1794] | –
28 | +++ (+++ is >60+) | Cc1cccc(C)c1-c1cc2nc(n1)NS(=O)(=O)c1cccc(c1)C(=O)N(Cc1cncc(N3CCCC[C@H]3C)n1)[C@@H](CCC(C)(C)F)CO2 (single isomer, unassigned) [Compound 1327] | –
29 | +++ (+++ is >60+) | Cc1cccc(C)c1-c1cc2nc(n1)NS(=O)(=O)c1cccc(c1)C(=O)N(Cc1cncc(N3CC[C@H]3C)n1)[C@H](CC1CC1)CO2 [Compound 1778] | –
30 | + (+ is <300)) | Cc1cccc(C)c1-c1cc2nc(n1)NS(=O)(=O)c1cccc(c1)C(=O)N(Cc1cncc(N3CCCC[C@@H]3C)n1)[C@H](C1CC(C)(C)C1)CO2 (stereo in doubt) [Compound 1897] | –
31 | +++ (+++ is >60+) | Cc1cccc(C)c1-c1cc2nc(n1)NS(=O)(=O)c1cccc(c1)C(=O)N(Cc1cncc(N3CCC[C@@H]4CC[C@@H]43)n1)[C@H](CCC(C)C)CO2 [Compound 1747] | –
